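48-hour exposure; five concentrations; linearly interpolated endpoints. TGI is the concentration that stops growth completely.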
Columns and labels:
Assay in all cases: DTP human tumour cell line panel, 48 h
COLO 205 colon = test system: COLO 205 colon
DU-145 prostate = test system: DU-145 prostate
EKVX NSCLC = test system: EKVX NSCLC
HCC-2998 colon = test system: HCC-2998 colon
HCT-15 colon = test system: HCT-15 colon
HL-60(TB) leukemia = test system: HL-60(TB) leukemia
MOLT-4 leukemia = test system: MOLT-4 leukemia
NCI-H23 lung = test system: NCI-H23 lung
OVCAR-8 ovarian = test system: OVCAR-8 ovarian
RXF 393 renal = test system: RXF 393 renal

Measured: TGI

CC1(C)C2CCC1(CC(=O)O)C(Cl)C2 (stereo not given)
> 100 µM: all assays above

CCN(CC)C1=Nc2ccccc2-n2c(C)cnc2C1
> 100 µM: all assays above

c1ccc2c(c1)C(=Nc1ccc(N=C3c4ccccc4-c4ccccc43)cc1)c1ccccc1-2
> 100 µM: all assays above

CCc1n[nH]c(=O)n1NC(=O)/C=C\C(=O)O
> 100 µM: all assays above

CC1(C)O[C@@H]2[C@@H]3OC(=O)C[C@@H]3[C@@H](COCc3ccccc3)[C@@H]2O1
> 100 µM: all assays above

Reference: PubChem BioAssay (NCI)
